Data as given in US10294202B2, “Pyrrolidinones as herbicides” (FMC Corporation, priority 2013, dated 2019).

How the values were obtained:
[1] = tested on: blackgrass; experiment: Test C pre-/postemergence herbicide test; type: in vivo, Alopecurus myosuroides
Procedure, shortened: (§1)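 Greenhouse pots; formulation = non-phytotoxic solvent mix + surfactant. PRE onto seeds in loam:sand; POST at 1–4 leaves (2–18 cm) in peat moss/vermiculite medium. Read-out: visual % control vs untreated, day 13–15.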

[2] = tested on: rice; experiment: Test B flooded paddy test; type: in vivo, Oryza sativa; settings: 500 g ai/ha, Flood; scale of 0 to 100 where 0 is no effect and 100 is complete control
Procedure, shortened: (§2)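 First, plants reach the 2-leaf stage; next, pots are flooded to 3 cm and compound is delivered into the water; finally, after 13 to 15 greenhouse days at constant depth, injury is graded visually from 0 to 100 against controls.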

[3] = tested on: soybean; experiment: Test C pre-/postemergence herbicide test; type: in vivo, Glycine max
Procedure, shortened: as §1

[4] = tested on: crabgrass, large; experiment: Test C pre-/postemergence herbicide test; type: in vivo, Digitaria sanguinalis
Procedure, shortened: as §1

[5] = tested on: ducksalad; experiment: Test B flooded paddy test; type: in vivo, Heteranthera limosa; settings: 500 g ai/ha, Flood; scale of 0 to 100 where 0 is no effect and 100 is complete control
Procedure, shortened: as §2

[6] = tested on: ryegrass, Italian; experiment: Test C pre-/postemergence herbicide test; type: in vivo, Lolium multiflorum
Procedure, shortened: as §1

[7] = tested on: corn; experiment: Test A pre-/postemergence herbicide test; type: in vivo, Zea mays; settings: Postemergence
Procedure, shortened: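 Greenhouse pot test with pre- and postemergence application of surfactant-containing solvent formulations. Postemergence plants were 2–10 cm, one- to two-leaf stage. Response scored visually after ~10 days, 0 (no effect) to 100 (complete control).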

[8] = tested on: barnyardgrass; experiment: Test B flooded paddy test; type: in vivo, Echinochloa crus-galli; settings: 500 g ai/ha, Flood; scale of 0 to 100 where 0 is no effect and 100 is complete control
Procedure, shortened: as §2

[9] = tested on: waterhemp; experiment: Test C pre-/postemergence herbicide test; type: in vivo, Amaranthus rudis
Procedure, shortened: as §1

[10] = tested on: velvetleaf; experiment: Test C pre-/postemergence herbicide test; type: in vivo, Abutilon theophrasti
Procedure, shortened: as §1

[11] = tested on: sedge, umbrella; experiment: Test B flooded paddy test; type: in vivo, Cyperus difformis; settings: 500 g ai/ha, Flood; scale of 0 to 100 where 0 is no effect and 100 is complete control
Procedure, shortened: as §2

[12] = tested on: oilseed rape; experiment: Test C pre-/postemergence herbicide test; type: in vivo, Brassica napus
Procedure, shortened: as §1

[13] = Postemergence, 31 g ai/ha, scale 0 to 100 (0 no effect, 100 complete control)
[14] = Postemergence, 62 g ai/ha, scale 0 (no effect) to 100 (complete control)
[15] = Postemergence, 125 g ai/ha, scale 0 to 100 (0 no effect, 100 complete control)
[16] = Postemergence, 250 g ai/ha, scale 0 to 100 (0 no effect, 100 complete control)
[17] = Preemergence, 31 g ai/ha, scale 0 to 100, 0 is no effect and 100 is complete control
[18] = Preemergence, 62 g ai/ha, scale 0 to 100
[19] = Preemergence, 125 g ai/ha, scale 0 to 100 (0 no effect, 100 complete control)
[20] = 500 g ai/ha, 0 to 100 scale (0 no effect, 100 complete control)
[21] = Preemergence, 62 g ai/ha, scale 0 to 100 (0 no effect, 100 complete control)
[22] = Preemergence, 125 g ai/ha, scale 0 to 100

O=C1NCC(c2ccc(F)cc2)C1C(=O)Nc1cccc(F)c1F (racemic) [Compound 119]
98: Crabgrass, Large plant response rating [4, 17] | Plant response rating, Crabgrass, Large [4, 18]
100: Plant response rating, Crabgrass, Large [4, 19] | Plant response rating (scale of 0 to 100), Crabgrass, Large ([4]; Preemergence, 250 g ai/ha) | Plant response rating, Ducksalad [5]
65: Plant response rating, Crabgrass, Large [4, 14] | Plant response rating, Waterhemp [9, 18]
5: Plant response rating, Soybean [3, 13] | Plant response rating, Soybean [3, 14] | Plant response rating, Soybean [3, 16] | Plant response rating, Ryegrass, Italian [6, 16] | Plant response rating, Oilseed Rape [12, 16] | Plant response rating, Oilseed Rape [12, 18]
90: Plant response rating, Crabgrass, Large [4, 16]
85: Plant response rating (scale of 0 to 100), Blackgrass ([1]; Preemergence, 250 g ai/ha)
10: Plant response rating, Rice [2]
80: Plant response rating, Blackgrass [1, 19] | Plant response rating, Crabgrass, Large [4, 15] | Plant response rating, Barnyardgrass [8] | Plant response rating (scale of 0 to 100), Waterhemp ([9]; Preemergence, 250 g ai/ha) | Plant response rating, Oilseed Rape [12, 19] | Plant response rating (scale of 0 to 100), Oilseed Rape ([12]; Preemergence, 250 g ai/ha)
70: Plant response rating, Blackgrass [1, 18] | Plant response rating, Corn [7, 20] | Plant response rating, Waterhemp [9, 19]
40: Plant response rating (scale of 0 to 100), Ryegrass, Italian ([6]; Preemergence, 250 g ai/ha) | Plant response rating, Waterhemp [9, 16] | Plant response rating, Velvetleaf [10, 19]
20: Plant response rating, Soybean [3, 18] | Waterhemp plant response rating [9, 17] | Plant response rating, Velvetleaf [10, 16]
0: Plant response rating, Blackgrass [1, 13] | Plant response rating, Blackgrass [1, 14] | Plant response rating, Blackgrass [1, 15] | Plant response rating, Blackgrass [1, 16] | Blackgrass plant response rating [1, 17] | Plant response rating, Soybean [3, 15] | Soybean plant response rating [3, 17] | Plant response rating, Soybean [3, 19] | Plant response rating (scale of 0 to 100), Soybean ([3]; Preemergence, 250 g ai/ha) | Plant response rating, Ryegrass, Italian [6, 13] | Plant response rating, Ryegrass, Italian [6, 14] | Plant response rating, Ryegrass, Italian [6, 15] | Ryegrass, Italian plant response rating [6, 17] | Plant response rating, Waterhemp [9, 13] | Plant response rating, Waterhemp [9, 14] | Plant response rating, Waterhemp [9, 15] | Plant response rating, Velvetleaf [10, 13] | Plant response rating, Velvetleaf [10, 14] | Velvetleaf plant response rating [10, 17] | Plant response rating, Sedge, Umbrella [11] | Plant response rating, Oilseed Rape [12, 13] | Plant response rating, Oilseed Rape [12, 14] | Plant response rating, Oilseed Rape [12, 15] | Oilseed Rape plant response rating [12, 17]
15: Plant response rating, Ryegrass, Italian [6, 18] | Plant response rating, Velvetleaf [10, 15] | Plant response rating, Velvetleaf [10, 18]
30: Plant response rating, Ryegrass, Italian [6, 19] | Plant response rating, Corn ([7]; 125 g ai/ha, 0 to 100 scale, 0 no effect, 100 complete control)
55: Plant response rating, Crabgrass, Large [4, 13]
50: Plant response rating (scale of 0 to 100), Velvetleaf ([10]; Preemergence, 250 g ai/ha)

O=C1NCC(c2cccc(C(F)(F)F)c2)C1C(=O)Nc1ccc(F)c(F)c1F (stereo not drawn) [Compound 315]
15: Plant response rating, Rice [2] | Plant response rating, Soybean [3, 16] | Plant response rating, Ryegrass, Italian [6, 15]
80: Plant response rating, Corn [7, 20] | Plant response rating (scale of 0 to 100), Oilseed Rape ([12]; Preemergence, 250 g ai/ha)
70: Plant response rating, Crabgrass, Large [4, 15] | Plant response rating, Corn ([7]; 125 g ai/ha, visual rating on 0 to 100 scale (0 no effect, 100 complete control), approx. 10 days) | Plant response rating, Barnyardgrass [8]
90: Crabgrass, Large plant response rating [4, 17]
95: Crabgrass, Large plant response rating [4, 21] | Plant response rating, Crabgrass, Large [4, 22]
50: Ryegrass, Italian plant response rating [6, 21] | Plant response rating, Ryegrass, Italian [6, 22] | Plant response rating (scale of 0 to 100), Ryegrass, Italian ([6]; Preemergence, 250 g ai/ha) | Plant response rating, Waterhemp [9, 13] | Plant response rating (scale of 0 to 100), Velvetleaf ([10]; Preemergence, 250 g ai/ha)
30: Plant response rating, Blackgrass [1, 15] | Plant response rating, Velvetleaf [10, 15] | Velvetleaf plant response rating [10, 21] | Oilseed Rape plant response rating [12, 21]
10: Plant response rating, Velvetleaf [10, 13] | Plant response rating, Oilseed Rape [12, 16]
0: Plant response rating, Blackgrass [1, 13] | Plant response rating, Blackgrass [1, 14] | Plant response rating, Soybean [3, 13] | Plant response rating, Soybean [3, 14] | Plant response rating, Soybean [3, 15] | Soybean plant response rating [3, 21] | Plant response rating, Soybean [3, 22] | Plant response rating (scale of 0 to 100), Soybean ([3]; Preemergence, 250 g ai/ha) | Plant response rating, Ryegrass, Italian [6, 13] | Plant response rating, Sedge, Umbrella [11] | Plant response rating, Oilseed Rape [12, 13] | Plant response rating, Oilseed Rape [12, 14] | Plant response rating, Oilseed Rape [12, 15]
40: Plant response rating, Velvetleaf [10, 22]
25: Plant response rating, Blackgrass [1, 16] | Plant response rating, Velvetleaf [10, 14]
98: Plant response rating (scale of 0 to 100), Crabgrass, Large ([4]; Preemergence, 250 g ai/ha)
100: Plant response rating, Ducksalad [5]
5: Plant response rating, Ryegrass, Italian [6, 14] | Oilseed Rape plant response rating [12, 17]
55: Plant response rating, Crabgrass, Large [4, 13] | Plant response rating, Velvetleaf [10, 16]
85: Plant response rating (scale of 0 to 100), Blackgrass ([1]; Preemergence, 250 g ai/ha) | Plant response rating, Waterhemp [9, 22] | Plant response rating (scale of 0 to 100), Waterhemp ([9]; Preemergence, 250 g ai/ha) | Plant response rating, Oilseed Rape [12, 22]
75: Plant response rating, Crabgrass, Large [4, 16] | Waterhemp plant response rating [9, 21]
45: Plant response rating, Ryegrass, Italian [6, 16]
65: Plant response rating, Blackgrass [1, 22] | Plant response rating, Crabgrass, Large [4, 14] | Plant response rating, Waterhemp [9, 16]
60: Blackgrass plant response rating [1, 17] | Blackgrass plant response rating [1, 21] | Plant response rating, Waterhemp [9, 14] | Plant response rating, Waterhemp [9, 15]
